Results: ChEMBL document CHEMBL1129685, “Mechanism-based inhibition of L-pipecolate oxidase by 4,5-dehydro-L-pipecolic acid” (J Med Chem, 1996)

Target: T1, Peroxisomal sarcosine oxidase (Homo sapiens) (UniProt Q9P0Z9)
T1 sequence (whole entry): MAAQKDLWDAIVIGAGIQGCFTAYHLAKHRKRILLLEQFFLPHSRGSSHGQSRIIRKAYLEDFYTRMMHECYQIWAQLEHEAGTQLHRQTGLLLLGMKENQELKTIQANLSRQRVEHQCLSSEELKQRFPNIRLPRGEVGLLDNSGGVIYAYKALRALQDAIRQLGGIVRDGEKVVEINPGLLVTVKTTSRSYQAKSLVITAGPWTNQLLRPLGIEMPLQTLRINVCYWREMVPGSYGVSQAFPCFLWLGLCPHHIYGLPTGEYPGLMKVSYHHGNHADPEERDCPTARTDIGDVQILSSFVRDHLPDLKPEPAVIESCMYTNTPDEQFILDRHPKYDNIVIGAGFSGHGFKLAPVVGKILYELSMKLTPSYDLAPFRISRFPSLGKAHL
Assay: Kinetic parameter inactivation constant was determined on L-pipecolate oxidase from Rhesus monkey
Details: Cercopithecidae; target entry is the homologue from another species

In the case of `O=C(O)[C@@H]1CCCCN1`, the Kiact is reported as 2 min⁻¹.
